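Method: 48-hour compound exposure of cells in 96-well plates, five concentrations, linear interpolation of endpoints. TGI: concentration producing complete growth inhibition.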
Key:
Assay in all cases: DTP human tumour cell line panel, 48 h
HCT-15 colon = test system: HCT-15 colon
SK-MEL-5 melanoma = test system: SK-MEL-5 melanoma
MALME-3M melanoma = test system: MALME-3M melanoma
OVCAR-3 ovarian = test system: OVCAR-3 ovarian
COLO 205 colon = test system: COLO 205 colon
OVCAR-4 ovarian = test system: OVCAR-4 ovarian

| Structure (SMILES) | TGI (HCT-15 colon) | TGI (SK-MEL-5 melanoma) | TGI (MALME-3M melanoma) | TGI (OVCAR-3 ovarian) | TGI (COLO 205 colon) | TGI (OVCAR-4 ovarian) |
| --- | --- | --- | --- | --- | --- | --- |
| CCOC(=O)[C@H]1Nc2ccc(C)cc2C2c3ccccc3CC21 (some centres undefined) | > 100 µM | > 100 µM | > 100 µM | > 100 µM | > 100 µM | > 100 µM |
| N#Cc1cnsc1 | > 100 µM | > 100 µM | > 100 µM | > 100 µM | > 100 µM | > 100 µM |
| O=C(/C=C/c1ccccc1Cl)c1ccccc1Cl | 28 µM | 99.1 µM | 69.4 µM | 33.9 µM | 44.8 µM | 41.3 µM |
| COC(=O)CSc1n[nH]c(-c2ccc(O)c([N+](=O)[O-])c2)n1 | > 100 µM | > 100 µM | > 100 µM | > 100 µM |  | > 100 µM |
| CCN(CC)C(=O)C/C(C)=N/NC(=O)c1ccncc1 |  | > 100 µM | > 100 µM | > 100 µM | > 100 µM |  |
| COC(=O)C(=O)C(C(=O)C(=O)Nc1ccc(C)cc1C)c1nc2ccccc2[nH]c1=O (centres undefined) | > 100 µM | > 100 µM | > 100 µM | > 100 µM | > 100 µM | > 100 µM |
| COc1ccc(C(=O)O)c(Cc2cccc3ccccc23)c1 | > 100 µM | > 100 µM | > 100 µM | > 100 µM | > 100 µM | > 100 µM |
| C#CC[C@]12CC(=O)CC[C@H]1CC(=O)C2 | > 100 µM | > 100 µM | > 100 µM | > 100 µM | > 100 µM | > 100 µM |
| CC(=O)SCCC1c2[nH]c3ccccc3c2CCN1O (centres undefined) | > 100 µM | > 100 µM | > 100 µM | > 100 µM | > 100 µM | > 100 µM |
| O=C(NC1CCCCCC1)C1C(=O)N(C2CCCCCC2)C(=O)/C1=N\O (centres undefined) | > 100 µM | > 100 µM | 68.5 µM | 37.6 µM | 31.2 µM | > 100 µM |
| O=C(CC(=O)N1N=C(c2ccccc2)C(N=Nc2ccc(Cl)cc2)C1=O)Nc1ccccc1Cl (centres undefined) | > 100 µM | 51.4 µM |  | 71.4 µM | > 100 µM | 37.2 µM |
| Cc1ccc(C(=O)/C=C/c2ccccc2O)c(C)c1 | > 100 µM | > 100 µM | > 100 µM | > 100 µM | > 100 µM | > 100 µM |
| CCc1cccc(C)c1NC(C)=O | > 100 µM | > 100 µM | > 100 µM | > 100 µM |  | > 100 µM |
| Nc1c(-c2ccc(Br)cc2)[n+]([O-])c2ccccc2[n+]1[O-] | > 100 µM | > 100 µM | > 100 µM | > 100 µM | > 100 µM | > 100 µM |
| COC(=O)C1=C(c2ccc3c(c2)OCO3)O[C@H](c2ccc3c(c2)OCO3)[C@H]1COC(C)=O | > 100 µM | 75.2 µM | > 100 µM | > 100 µM | 28.9 µM | > 100 µM |
| NC1C2(CCCCCC2)NC(=O)C12CCCCCC2 (centres undefined) | > 100 µM | > 100 µM | > 100 µM | > 100 µM | > 100 µM | > 100 µM |
| NCCCNCCSSCCCCS(=O)O | > 100 µM | 32.7 µM | 49.2 µM | 44.8 µM | 35.7 µM | 28.2 µM |
| Cc1cc(NS(=O)(=O)c2ccc(NC(=O)c3cccc4c(=O)c5ccccc5[nH]c34)cc2)no1 | > 100 µM | > 100 µM | > 100 µM | 95.5 µM | > 100 µM | > 100 µM |
| N#CCCN(c1ccc(/C=C2\N=C(c3ccc(Cl)cc3)OC2=O)cc1)S(=O)(=O)c1ccccc1 | > 100 µM | > 100 µM |  | > 100 µM | > 100 µM | > 100 µM |
| COc1cc(Cc2cc(OC)c(OC)c(OC)c2)ccc1O | > 100 µM | > 100 µM | 12 µM | 52.4 µM | > 100 µM | > 100 µM |
| Cc1ccc(NC(=O)C2C(=O)N(c3ccc(C)c(C)c3)C(=O)/C2=N/O)cc1C (centres undefined) | > 100 µM | > 100 µM | > 100 µM | > 100 µM | > 100 µM |  |
| Cc1ccc(N=NC(C(=O)c2ccccc2)C(=O)c2ccccc2)cc1 | 43.6 µM | 55.1 µM | > 100 µM | > 100 µM | 52.4 µM | 61.6 µM |
| CC#CC(=O)Nc1ccccc1CC(c1c[nH]c2ccccc12)c1c[nH]c2ccccc12 | 32.8 µM | 29.8 µM | 32.3 µM | 49.6 µM | 29.7 µM |  |
| CN(C)C(=S)/N=c1\ss/c(=N\C(=S)N(C)C)n1-c1ccc2c(c1)OCO2 | > 100 µM | > 100 µM | > 100 µM | > 100 µM |  | > 100 µM |
| CCOC(=O)NC(=O)c1cn(CCCOC(=O)NCCCCCCNC(=O)OCCCn2c(=O)c(C(=O)NC(=O)OCC)cn(C)c2=O)c(=O)n(C)c1=O | > 100 µM |  | > 100 µM | > 100 µM | > 100 µM | > 100 µM |
| CC(C)=CC(=O)N1CCN(C(=O)C=C(C)C)CC1 | > 100 µM | > 100 µM |  | > 100 µM |  | > 100 µM |
